In ChEMBL document CHEMBL1201862, “PubChem BioAssay data set” (2004):
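Protocol summary: plate cells (96-well), add compound at 5 concentrations, incubate 48 h, interpolate endpoints linearly. Abbreviation: GI50, concentration required for 50% inhibition of growth.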 The source made the active and inactive calls. Rule as the data show it: active = GI50 up to about 1.1 µM and inactive = higher.

What was measured:
Experiment in all cases: inhibition of tumour cell growth, NCI panel, 48 h
[1] = tested on: NCI/ADR-RES
[2] = tested on: NCI-H226
[3] = tested on: SK-MEL-28
[4] = tested on: U-251
[5] = tested on: SNB-78
[6] = tested on: NCI-H460
[7] = tested on: OVCAR-3
[8] = tested on: IGROV-1
[9] = tested on: HOP-62
[10] = tested on: SK-MEL-5
[11] = tested on: HOP-18
[12] = tested on: HCT-15
[13] = tested on: HL-60
[14] = tested on: UACC-257
[15] = tested on: KM12
[16] = tested on: SN12C
[17] = tested on: OVCAR-4
[18] = tested on: HCC 2998
[19] = tested on: ACHN
[20] = tested on: TK-10

Row | Structure (SMILES) | GI50 [1] | GI50 [2] | GI50 [3] | GI50 [4] | GI50 [5] | GI50 [6] | GI50 [7] | GI50 [8] | GI50 [9] | GI50 [10] | GI50 [11] | GI50 [12] [µM] | GI50 [13] | GI50 [14] | GI50 [15] | GI50 [16] | GI50 [17] | GI50 [18] | GI50 [19] | GI50 [20]
1 | CC1=CC2c3cccc4[nH]cc(c34)CC2N(C)C1 (centres undefined) | > 100 µM (inactive) | > 100 µM (inactive) | > 100 µM (inactive) | > 100 µM (inactive) | > 100 µM (inactive) | 56.5 µM (inactive) | > 100 µM (inactive) | > 100 µM (inactive) | 15.8 µM (inactive) | > 76.9 µM (inactive) | 23.4 µM (inactive) | > 100 | 31.6 µM (inactive) | 22.4 µM (inactive) | > 100 µM (inactive) | > 89.5 µM (inactive) | > 100 µM (inactive) | 25.5 µM (inactive) | – | –
2 | CC(/C=N/N=C(N)N)=N\N=C(N)N | 4.15 µM (inactive) | 38.5 µM (inactive) | 64.6 µM (inactive) | 18.5 µM (inactive) | 13.6 µM (inactive) | 8.97 µM (inactive) | 6.11 µM (inactive) | 279 µM (inactive) | 6.58 µM (inactive) | 191 µM (inactive) | 246 µM (inactive) | 94 | 7.24 µM (inactive) | 140 µM (inactive) | 2.83 µM (inactive) | 106 µM (inactive) | 3.4 µM (inactive) | 5.57 µM (inactive) | 22.8 µM (inactive) | 44.7 µM (inactive)
3 | COC1C(O)CC(OC2CC(Oc3cc4cc5c(c(O)c4c(O)c3C)C(=O)[C@@H](OC3CC(OC4CC(OC6CC(C)(O)C(OC(C)=O)C(C)O6)C(O)C(C)O4)C(O)C(C)O3)[C@H]([C@H](OC)C(=O)[C@@H](O)[C@@H](C)O)C5)OC(C)C2OC(C)=O)OC1C (some centres undefined) [CHROMOMYCIN] | 0.75 µM (active) | < 0.01 µM (active) | 0.00368 µM (active) | 0.00344 µM (active) | 0.00337 µM (active) | < 0.0133 µM (active) | < 0.01 µM (active) | 0.0101 µM (active) | 0.00355 µM (active) | < 0.01 µM (active) | 0.00445 µM (active) | 0.0138 | 0.0127 µM (active) | < 0.01 µM (active) | < 0.01 µM (active) | 0.0101 µM (active) | < 0.01 µM (active) | < 0.01 µM (active) | 4.71e-05 µM (active) | 0.000119 µM (active)
4 | Nc1ncc2c(n1)-c1ccccc1OC2 | > 100 µM (inactive) | 36.6 µM (inactive) | > 100 µM (inactive) | > 100 µM (inactive) | > 100 µM (inactive) | > 100 µM (inactive) | > 100 µM (inactive) | 40.4 µM (inactive) | 76 µM (inactive) | > 100 µM (inactive) | > 100 µM (inactive) | > 100 | > 100 µM (inactive) | > 100 µM (inactive) | > 100 µM (inactive) | > 100 µM (inactive) | > 31.6 µM (inactive) | > 100 µM (inactive) | – | –
5 | COc1cc([C@@H]2c3cc4c(c(O[C@@H]5O[C@H]6CO[C@@H](C)O[C@H]6[C@H](O)[C@@H]5O)c3C[C@H]3COC(=O)[C@@H]32)OCO4)cc(OC)c1O | 4.02 µM (inactive) | 3.75 µM (inactive) | 5.81 µM (inactive) | 8.17 µM (inactive) | 6.03 µM (inactive) | 12.1 µM (inactive) | 6.76 µM (inactive) | 8.61 µM (inactive) | 27.2 µM (inactive) | 5.08 µM (inactive) | 11.7 µM (inactive) | 14.6 | 4.41 µM (inactive) | 5.93 µM (inactive) | 8.75 µM (inactive) | 12.6 µM (inactive) | 9.16 µM (inactive) | 26.9 µM (inactive) | – | –
